Patent EP0745595A1, “3-(3-Aryloxyphenyl)-1-(substituted methyl)-s-triazine-2,4,6-oxo or thiotrione herbicidal agents” (American Cyanamid Company, priority 1995, dated 1996)

Assays:
Assay type in all cases: in vivo
[1] = system: GALIUM APARINE; assay: Postemergence herbicidal evaluation, GALAP (Galium); conditions: rated four to five weeks after treatment, averaged
Experimental: (§1) In the tests, seedling plants are grown in jiffy flats for about two weeks. The test compounds are dispersed in 50/50 acetone/water mixtures containing 0.5% TWEEN®20, a polyoxyethylene sorbitan monolaurate surfactant of Atlas Chemical Industries, in sufficient quantities to provide the equivalent of about 0.125 kg to 0.500 kg per hectare of active compound when applied to the plants through a spray nozzle operating at 40 psi for a predetermined time. After spraying, the plants are placed on greenhouse benches and are cared for in the usual manner, commensurate with conventional greenhouse practices. From four to five weeks after treatment, the seedling plants are examined and rated according to the rating system set forth below. Where more than one test is involved for a given compound, the data are averaged.
(§2) Plant species employed in these evaluations are reported by header abbreviation, common name and scientific name.
(§3) Results of herbicide evaluation are expressed on a rating scale (0-9). The scale is based upon a visual observation of plant stand, vigor, malformation, size, chlorosis and overall plant appearance as compared with a control.

[2] = system: […], PRESL.; assay: Preemergence weed control under flooded paddy conditions, MOOVA (Monochoria); conditions: preemergence, 3-4 weeks after treatment
Experimental: as §3
(§4) Preemergence herbicidal activity under flooded paddy conditions is determined as follows: plant seeds or propagating organs are planted in the top 0.5 cm of silt loam soil in 32 oz. plastic containers with a diameter of 10.5 cm and no drainage holes. Water is added to these containers and maintained at 1.5 to 3 cm above the soil surface for the duration of the experiment. The test compounds are applied as aqueous/acetone mixtures 50/50 v/v pipetted directly into the flood water to give the equivalent of about 0.5, 0.25, 0.125 and 0.063 kg/ha of active ingredient. The treated containers are placed on greenhouse benches and cared for according to normal greenhouse procedures.- Three to four weeks after treatment the test is terminated and each container is examined and herbicidal effect rated according to the rating system provided in Example 40. The compounds evaluated are reported by compound number given in Example 40.
(§5) Plant species employed in this example are reported by header abbreviation, common name and scientific name.

[3] = system: ABUTILON THEOPHRASTI, MEDIC.; assay: Postemergence herbicidal evaluation, ABUTH (Velvetleaf); conditions: rated four to five weeks after treatment, averaged
Experimental: as §1, with “in sufficient quantities to provide the equivalent of about 0.125 kg to 0.500 kg per hectare of active compound when applied” left out
as §2, §3

[4] = system: CYPERUS SEROTINUS, ROTTB.; assay: Preemergence weed control under flooded paddy conditions, CYPSE (Flatsedge); conditions: preemergence, 3-4 weeks after treatment
Experimental: as §3
as §4, with “The test compounds are applied as aqueous/acetone mixtures 50/50 v/v pipetted directly into the flood water to give the equivalent of about 0.5, 0.25, 0.125 and 0.063 kg/ha of active ingredient.” left out
as §5

[5] = system: CASSIA OBTUSIFOLIA, L.; assay: Postemergence herbicidal evaluation, CASOB (Sicklepod); conditions: rated four to five weeks after treatment, averaged
Experimental: as §1, §2, §3

[6] = system: ORYZA SATIVA, L. TEBONNET; assay: Rice tolerance to post-transplant applications under flooded paddy conditions, ORYSAT (Rice, Tebonnet); conditions: post-transplant rice, 3-4 weeks after treatment
Experimental: as §3
The tolerance of transplanted rice to post-transplanted herbicide applications is determined as follows: two ten-day-old rice seedlings (CV. Tebonnet) are transplanted into a silt loam soil in 32 oz. plastic containers with a diameter of 10.5 cm and no drainage holes. After transplanting the containers are flooded and the water level is maintained at 1.5 to 3 cm above the soil surface. […] The treated containers are placed on greenhouse benches, watered such that the water level is maintained as stated above, and cared for according to normal greenhouse procedures. Three to four weeks after treatment the test is terminated and each container is examined and herbicidal effect rated according to the rating system provided in Example 40. The compounds evaluated are reported by compound number given in Example 40.
as §5

[7] = system: SAGITTARIA PYGMAEA, L.; assay: Preemergence weed control under flooded paddy conditions, SAGPY (Arrowhead (Pygmaea)); conditions: preemergence, 3-4 weeks after treatment
Experimental: as §3
as §4, with “The test compounds are applied as aqueous/acetone mixtures 50/50 v/v pipetted directly into the flood water to give the equivalent of about 0.5, 0.25, 0.125 and 0.063 kg/ha of active ingredient.” left out
as §5

[8] = system: AMBROSIA ARTEMISIIFOLIA, L.; assay: Postemergence herbicidal evaluation, AMBEL (Ragweed, Common); conditions: rated four to five weeks after treatment, averaged
Experimental: as §1, with “in sufficient quantities to provide the equivalent of about 0.125 kg to 0.500 kg per hectare of active compound when applied” left out
as §2, §3

[9] = system: CHENOPODIUM ALBUM, L.; assay: Preemergence herbicidal evaluation, CHEAL (Lambsquarters, Common); conditions: rated four to five weeks after treatment
Source text: as §3
The preemergence herbicidal activity of the test compounds of the present invention is exemplified by the following tests in which the seeds of a variety of monocotyledonous and dicotyledonous plants are separately mixed with potting soil and planted on top of approximately one inch of soil in separate pint cups. […] The treated cups are then placed on greenhouse benches, watered and cared for in accordance with conventional greenhouse procedures. From four to five weeks after treatment, the tests are terminated and each cup is examined and rated according to the rating system provided in Example 40.
The compounds evaluated are reported by compound number given in Example 40.

[10] = system: IPOMOEA SPP.; assay: Postemergence herbicidal evaluation, IPOSS (Morningglory spp.); conditions: rated four to five weeks after treatment, averaged
Experimental: as §1, with “in sufficient quantities to provide the equivalent of about 0.125 kg to 0.500 kg per hectare of active compound when applied” left out
as §2, §3

Row | SMILES | Herbicidal effect rating, MOOVA ([2]; 0.063 kg/ha) | Herbicidal effect rating, MOOVA ([2]; 0.125 kg/ha) | Herbicidal effect rating, MOOVA ([2]; 0.250 kg/ha) | Herbicidal effect rating, MOOVA ([2]; 0.500 kg/ha) | ABUTH, herbicide rating (0-9) ([3]; Rate 0.125 kg/ha) | ABUTH, herbicide rating (0-9) ([3]; Rate 0.250 kg/ha) | ABUTH, herbicide rating (0-9) ([3]; Rate 0.500 kg/ha) | CASOB, herbicide rating (0-9) ([5]; Rate 0.125 kg/ha) | CASOB, herbicide rating (0-9) ([5]; Rate 0.250 kg/ha) | CASOB, herbicide rating (0-9) ([5]; Rate 0.500 kg/ha) | Herbicidal effect rating, ORYSAT ([6]; 0.063 kg/ha) | Herbicidal effect rating, ORYSAT ([6]; 0.125 kg/ha) | Herbicidal effect rating, ORYSAT ([6]; 0.250 kg/ha) | Herbicidal effect rating, ORYSAT ([6]; 0.500 kg/ha) | Herbicidal effect rating, SAGPY ([7]; 0.063 kg/ha) | Herbicidal effect rating, SAGPY ([7]; 0.125 kg/ha) | Herbicidal effect rating, SAGPY ([7]; 0.250 kg/ha) | Herbicidal effect rating, SAGPY ([7]; 0.500 kg/ha) | also measured
1 | COC(=O)Cn1c(=O)n(CC(=O)OC)c(=O)n(-c2cc(Oc3ccc(Cl)cc3Cl)ccc2[N+](=O)[O-])c1=O [Compound 19, Dimethyl 5-[5-(2,4-dichlorophenoxy)-2-nitro-phenyl]dihydro-2,4,6-trioxo-s-trizine-1,3-(2H,4H)-diacetate] | 9.0 | 9.0 | 9.0 | 9.0 | 9.0 | 9.0 | 9.0 | 9.0 | 9.0 | 9.0 | 1.0 | 1.0 | 1.0 | 1.0 | 0.0 | 0.0 | 0.0 | 0.0 | GALAP, herbicide rating (0-9) ([1]; Rate 0.125 kg/ha): 9.0; GALAP, herbicide rating (0-9) ([1]; Rate 0.250 kg/ha): 9.0; GALAP, herbicide rating (0-9) ([1]; Rate 0.500 kg/ha): 9.0; Herbicidal effect rating, CYPSE ([4]; 0.063 kg/ha): 0.0; Herbicidal effect rating, CYPSE ([4]; 0.125 kg/ha): 0.0; Herbicidal effect rating, CYPSE ([4]; 0.250 kg/ha): 0.0; Herbicidal effect rating, CYPSE ([4]; 0.500 kg/ha): 0.0
2 | COC(=O)Cn1c(=O)n(C)c(=O)n(-c2cc(Oc3ccc(Cl)cc3F)ccc2[N+](=O)[O-])c1=O [Compound 23, Methyl 3-[5-(4-chloro-2-fluorophenoxy)-2-nitrophenyl]tetrahydro-5-methyl-2,4,6-trioxo-s-triazine-1(2H)-acetate] | – | – | – | – | – | – | – | – | – | – | 2.0 | 2.0 | 3.0 | 3.0 | 0.0 | 0.0 | 0.0 | 0.0 | –
3 | Cn1c(=O)n(CC(=O)O)c(=O)n(-c2cc(Oc3c(F)cc(C(F)(F)F)cc3Cl)ccc2[N+](=O)[O-])c1=O [Compound 15, 3-{5-[(2-Chloro-α,α,α,6-tetrafluoro-p-tolyl)oxy]-2-nitrophenyl}tetrahydro-5-methyl-2,4,6-trioxo-s-triazine-1(2H)-acetic acid] | 9.0 | 9.0 | 9.0 | 9.0 | 9.0 | 9.0 | 9.0 | 9.0 | 9.0 | 9.0 | 4.5 | 4.5 | 7.0 | 7.0 | – | – | – | – | AMBEL, herbicide rating (0-9) ([8]; Rate 0.125 kg/ha): 9.0; AMBEL, herbicide rating (0-9) ([8]; Rate 0.250 kg/ha): 9.0; AMBEL, herbicide rating (0-9) ([8]; Rate 0.500 kg/ha): 9.0; CHEAL herbicidal rating ([9]; Rate 0.125 kg/ha): 9.0; CHEAL herbicidal rating ([9]; Rate 0.250 kg/ha): 9.0; CHEAL herbicidal rating ([9]; Rate 0.500 kg/ha): 9.0
4 | COC(=O)Cn1c(=O)n(C)c(=O)n(-c2cc(Oc3ccc(Cl)c(Cl)c3Cl)ccc2[N+](=O)[O-])c1=O [Compound 26, Methyl 3-[2-nitro-5-(2,3,4-trichlorophen-oxy)phenyl]tetrahydro-5-methyl-2,4,6-tri-oxo-s-triazine-1(2H)-acetate] | – | – | – | – | – | – | – | – | – | – | 2.0 | 2.0 | 3.0 | 3.0 | 0.0 | 0.0 | 0.0 | 0.0 | –
5 | COC(=O)Cn1c(=O)n(C)c(=O)n(-c2cc(Oc3ccc(Cl)c(C)c3Cl)ccc2[N+](=O)[O-])c1=O [Compound 20, Methyl 3-{5-[(2,4-dichloro-m-tolyl)oxy]-2-nitrophenyl}tetrahydro-5-methyl-2,4,6-trioxo-s-triazine-1(2H)-acetate] | – | – | – | – | 9.0 | 9.0 | 9.0 | – | – | – | 2.0 | 3.0 | 3.0 | 4.0 | 0.0 | 0.0 | 0.0 | 0.0 | IPOSS, herbicide rating (0-9) ([10]; Rate 0.125 kg/ha): 9.0; IPOSS, herbicide rating (0-9) ([10]; Rate 0.250 kg/ha): 9.0; IPOSS, herbicide rating (0-9) ([10]; Rate 0.500 kg/ha): 9.0
